The text below walks through data of patent US7812036B2, “Androgens” (N.V. Organon, priority 2004, dated 2010).

The test deals with T1, human androgen receptor (Homo sapiens, UniProt P10275).
T1 construct: expressed in transfected cells; host or cells: Chinese hamster ovary (CHO) cells, line CHO-AR-pMMTV-LUC 1G12-A5-CA
T1 sequence (P10275 1-920): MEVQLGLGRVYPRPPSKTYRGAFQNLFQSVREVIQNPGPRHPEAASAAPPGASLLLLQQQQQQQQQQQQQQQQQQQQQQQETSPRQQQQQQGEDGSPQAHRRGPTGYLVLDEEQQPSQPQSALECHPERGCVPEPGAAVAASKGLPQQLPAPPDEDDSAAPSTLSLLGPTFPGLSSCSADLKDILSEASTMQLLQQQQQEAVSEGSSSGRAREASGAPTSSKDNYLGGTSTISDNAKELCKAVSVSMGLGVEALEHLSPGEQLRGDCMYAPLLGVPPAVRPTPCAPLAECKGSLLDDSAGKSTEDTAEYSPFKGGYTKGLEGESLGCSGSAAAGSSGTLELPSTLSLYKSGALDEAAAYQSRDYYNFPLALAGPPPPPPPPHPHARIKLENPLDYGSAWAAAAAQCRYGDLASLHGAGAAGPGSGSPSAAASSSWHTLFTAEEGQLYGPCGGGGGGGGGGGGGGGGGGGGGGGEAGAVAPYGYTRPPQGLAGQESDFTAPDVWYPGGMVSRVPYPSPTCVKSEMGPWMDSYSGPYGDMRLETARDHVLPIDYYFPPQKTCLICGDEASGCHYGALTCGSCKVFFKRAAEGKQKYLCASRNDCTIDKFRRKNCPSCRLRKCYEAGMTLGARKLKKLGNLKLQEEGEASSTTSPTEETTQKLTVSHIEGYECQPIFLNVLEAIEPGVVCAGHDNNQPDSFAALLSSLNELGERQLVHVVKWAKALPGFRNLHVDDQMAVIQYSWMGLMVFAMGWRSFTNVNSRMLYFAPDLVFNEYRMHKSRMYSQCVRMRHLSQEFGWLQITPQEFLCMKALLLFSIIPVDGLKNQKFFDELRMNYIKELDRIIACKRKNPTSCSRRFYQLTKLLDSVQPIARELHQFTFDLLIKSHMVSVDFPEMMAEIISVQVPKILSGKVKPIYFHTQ
Briefly: Androgenic activity (potency) in vitro bioassay, CHO-AR-pMMTV-LUC 1G12-A5-CA cells, luciferase reporter. In kind it is cell-based. As to conditions: CHO cells stably transfected with human androgen receptor and MMTV-luciferase reporter; in the presence of 0.1 μmol/l onapristone; potencies expressed as percentage of DHT activity (maximal efficacy with 100 nmol/l DHT set as 100%). As to the method:
The androgenic activity (potency) of the compounds of the invention was determined in an in vitro bioassay of Chinese hamster ovary (CHO) cells stably transfected with the human androgen receptor expression plasmid and a reporter plasmid in which the MMTV promoter is linked to the luciferase reporter gene. The cell line CHO-AR-pMMTV-LUC 1G12-A5-CA is described in Schoonen et al. (J. Steroid Biochem. Molec. Biol. 2002; 74: 213-222). The androgen receptor activity of compounds was determined in the presence of 0.1 μmol/l onapristone. The maximal efficacy in the presence of 100 nmol/1 DHT was set as 100%. The potencies are expressed as percentage of DHT activity.
On the technique in general: A reporter such as luciferase makes a cellular process visible.
`CNc1ccc2c(Sc3ccccc3[N+](=O)[O-])cn(Cc3ccoc3)c2c1` [Example 5i, [1-Furan-3-ylmethyl-3-(2-nitro-phenylsulfanyl)-1H-indol-6-yl]-methyl-amine]: the “Potency (%)” value was 17.9%. As for `CC(=O)CNc1ccc2c(Sc3ccccc3[N+](=O)[O-])cn(Cc3cc(F)cc(F)c3)c2c1` [Example 21a, 1-[1-(3,5-Difluoro-benzyl)-3-(2-nitro-phenylsulfanyl)-1H-indol-6-ylamino]-propan-2-one], the figure is 7.2%; as for `COCCNc1ccc2c(Sc3ccccc3[N+](=O)[O-])cn(Cc3cccnc3)c2c1` [Example 21f, (2-Methoxy-ethyl)-[3-(2-nitro-phenylsulfanyl)-1-pyridin-3-ylmethyl-1H-indol-6-yl]-amine], 20.9%. Take `N#Cc1ccccc1Sc1cn(Cc2cc(F)cc(F)c2)c2cc(NCCO)ccc12` [Example 21h]: the “Potency (%)” value is 2.9%. Under `CNc1ccc2c(Sc3ccccc3[N+](=O)[O-])cn(Cc3ccncc3)c2c1` [Example 5e, Methyl-[3-(2-nitro-phenylsulfanyl)-1-pyridin-4-ylmethyl-1H-indol-6-yl]-amine] stands 35.1%; under `N#CCNc1ccc2c(Sc3ccccc3[N+](=O)[O-])cn(Cc3cc(F)cc(F)c3)c2c1` [Example 20, [1-(3,5-Difluoro-benzyl)-3-(2-nitro-phenylsulfanyl)-1H-indol-6-ylamino]-acetonitrile], 40.2%; under `CNc1ccc2c(Sc3ccccc3[N+](=O)[O-])cn(Cc3ccccc3F)c2c1` [Example 5b], 0.4%. Consider `CNc1ccc2c(Sc3ccccc3[N+](=O)[O-])cn(Cc3cccc(C(F)(F)F)c3)c2c1` [Example 5q, Methyl-[3-(2-nitro-phenylsulfanyl)-1-(3-trifluoromethyl-benzyl)-1H-indol-6-yl]-amine], for which the “Potency (%)” value is reported as 1.0%. Turning to `COC(=O)CNc1ccc2c(Sc3ccccc3[N+](=O)[O-])cn(Cc3cc(F)cc(F)c3)c2c1` [Example 22e], the “Potency (%)” value turned out to be 4.0%. Take `CCNc1ccc2c(Sc3ccccc3[N+](=O)[O-])cn(Cc3ccccn3)c2c1` [Example 19d, Ethyl-[3-(2-nitro-phenylsulfanyl)-1-pyridin-2-ylmethyl-1H-indol-6-yl]-amine]: the “Potency (%)” value stood at 6.7%. As for `CNc1ccc2c(S(=O)(=O)c3ccccc3[N+](=O)[O-])cn(Cc3cc(F)cc(F)c3)c2c1` [Example 13, [1-(3,5-Difluoro-benzyl)-3-(2-nitro-benzenesulfonyl)-1H-indol-6-yl]-methyl-amine], the figure is 18.9%; as for `CNc1ccc2c(S(=O)(=O)c3ccccc3[N+](=O)[O-])cn(Cc3ccccn3)c2c1` [Example 14, Methyl-[3-(2-nitro-phenylsulfonyl)-1-pyridin-2-ylmethyl-1H-indol-6-yl]-amine], 1.9%. Under `CNc1ccc2c(Sc3ccccc3[N+](=O)[O-])cn(Cc3cc(F)cc(F)c3)c2c1` [Example 1] stands 15.0%. Turning to “Methyl-[1-(3-meth 1-benzyl-3-(2-nitro-phenylsulfanyl)-1H-indol-6-yl]-amine [Example 5o]”, the “Potency (%)” value is 1.6%. Consider `CNc1ccc2c(Sc3ccccc3[N+](=O)[O-])cn(Cc3ccco3)c2c1` [Example 5h, [1-Furan-2-ylmethyl-3-(2-nitro-phenylsulfanyl)-1H-indol-6-yl]-methyl-amine], for which the “Potency (%)” value was 16.5%. For the compound `CN(C)c1ccc2c(Sc3ccccc3[N+](=O)[O-])cn(Cc3cccnc3)c2c1` [Example 19e, Dimethyl-[3-(2-nitro-phenylsulfanyl)-1-pyridin-3-ylmethyl-1H-indol-6-yl]-amine], the “Potency (%)” value is 2.6%.

In the case of `COCCNc1ccc2c(Sc3ccccc3[N+](=O)[O-])cn(Cc3cc(F)cc(F)c3)c2c1` [Example 21c], the “Potency (%)” value worked out at 11.4%. Under `N#CCNc1ccc2c(Sc3ccccc3C#N)cn(Cc3cc(F)cc(F)c3)c2c1` [Example 21g, 2-[6-(Cyanomethyl-amino)-1-(3,5-difluoro-benzyl)-1H-indol-3-ylsulfanyl]-benzonitrile] stands 9.2%; under `CNc1ccc2c(Sc3ccccc3[N+](=O)[O-])cn(Cc3ccno3)c2c1` [Example 5n, [1-Isoxazol-5-ylmethyl-3-(2-nitro-phenylsulfanyl)-1H-indol-6-yl]-methyl-amine], 19.4%; under `C=CCNc1ccc2c(Sc3ccccc3[N+](=O)[O-])cn(Cc3cc(F)cc(F)c3)c2c1` [Example 19b], 2.4%.
